{
  "source": "paper PMC10002517",
  "about": "“Inhibition of Transglutaminase 2 as a Therapeutic Strategy in Celiac Disease—In Vitro Studies in Intestinal Cells and Duodenal Biopsies” (International Journal of Molecular Sciences, 2023)",
  "key": {"[1]": {"system": "transepithelial passage of P31-43 in Caco-2 cells", "assay": "Transepithelial transport of promofluor-conjugated gliadin peptide P31-43 across Caco-2 monolayers (fluorometry)", "assay_type": "cell-based, human", "details": "in the presence of MBCD; 7 µg/mL peptide apical in HBSS, 3 h; normalized to no inhibitor; mean ± SD, n = 3", "method": "(§1) Transepithelial transport of immunogenic and toxic gliadin peptides were examined in Caco-2 cells 7–14 days after confluency. Caco-2 cells were seeded on semi-permeable transwell supports (ThinCert, culture surface: 33.6 mm², pore size: 0.4 µm) in 24-well plates (Greiner Bio One, Pleidelsheim, Germany). Prior to the transport experiments, the integrity of the cell monolayer was tested by measuring the transepithelial electric resistance (TEER) using a volt-ohm meter (Millipore, Schwalbach, Germany). Monolayers with insufficient TEER (<350 Ω/cm^2) were omitted. The synthesis and purification of promofluor-conjugated gliadin peptides were described elsewhere. Cells were either incubated with the immunogenic peptide P56-88 ([…]) or the toxic gliadin peptide P31-43 (LGQQQPFPPQQPY), 7 µg/mL each, in Hank’s balanced salt solution (HBSS) for 3 h. To investigate the role of TG2 on the transport of gliadin peptides, incubation was performed in the presence of ERW1041 and PX-12. After 3 h, basal and apical supernatants were collected, and the relative fluorescence of the basal compartment was quantified using a FLUOstar Optima (BMG Labtech) microplate reader. Background subtraction was performed against conditions, where no labeled peptides were used. Normalization was performed against conditions, where no inhibitors were used."}, "[2]": {"system": "transepithelial passage of P56-88 in Caco-2 cells", "assay": "Transepithelial transport of promofluor-conjugated gliadin peptide P56-88 across Caco-2 monolayers (fluorometry)", "assay_type": "cell-based, human", "details": "in the presence of MBCD; 7 µg/mL peptide apical in HBSS, 3 h; normalized to no inhibitor; n.s.; mean ± SD, n = 3", "method": "as §1"}, "[3]": {"system": "epithelial infiltration of CD8+ T cells and mucosal damage", "details": "cited from earlier work", "source_text": "(§2) Even though our results underline the significance of TG2 inhibition, further research is needed to investigate the effects of those inhibitors on gliadin-induced inflammation. In recent studies, these inflammatory mechanisms were only partially mitigated by inhibition of TG2."}, "actin rearrangement": {"system": "actin rearrangement", "details": "cited from earlier work", "source_text": "as §2"}, "[4]": {"system": "gliadin peptide uptake (P31-43 and P57-68)", "details": "cited from earlier work", "source_text": "Since TG2 is expressed on the surface of epithelial cells and plays a role in transcytosis, we aimed to investigate the effect of TG2 inhibitors on the epithelial uptake of gliadin peptides. First, we confirmed the results from Caputo et al. and Zimmermann et al. by showing that the translocation of P31-43, but not of P56-88, was inhibited by the endocytosis inhibitor MBCD [21, 37]."}, "TG2 expression": {"system": "TG2 expression", "assay": "Western blotting of TG2 protein expression in Caco-2 cells", "assay_type": "cell-based, human", "details": "IFN-γ 48 h; normalized to GAPDH; n = 4", "method": "[…] First, cells were washed two times with cold PBS, scraped off the plate and centrifuged (60 s at 14,100× g). The cell pellet was resuspended in RIPA lysis buffer supplemented with phenylmethylsulfonyl fluoride, protease inhibitor and sodium orthovanadate (1% each), incubated for 20 min on ice and centrifuged (20 min at 14,100 gat 4 °C) afterwards. Supernatant was collected and cell debris was discarded. Protein quantitation was performed using the Pierce BCA protein assay kit (Thermo Fisher Scientific). After denaturation in Laemmli buffer containing 2-mercaptoethanol for 5 min at 95 °C, 10 µg of the protein extract per lane were loaded on a 12% SDS-gel. Electrophoresis was done for 1 h at 40 mA. Protein transfer onto PVDF membrane (0.2 µm pore size) was done using a Transblot Turbo system (Bio-Rad Laboratories) for 30 min (25 V, 1 A). The membrane was blocked for 1 h with 5% non-fat dry milk in PBS + […]. The primary antibodies (anti-TG2 (1:500): CUB7402, Abcam, Cambridge, UK; anti-GAPDH (1:5000): MAB374, Merck Millipore, Darmstadt, Germany) were incubated at 4 °C in blocking buffer overnight. […] Image processing and quantitation were performed using a ChemiDoc XRS+ imager and Image Lab software (BioRad Laboratories, Feldkirchen, Germany)."}},
  "data": [
    {"compound": "methyl-β-cyclodextrin [MBCD]", "values": [
      {"measurement": "transepithelial passage of P31-43 (relative basal fluorescence)", "setting": "[1]", "result": "58 ± 7", "unit": "%"},
      {"measurement": "transepithelial transport of P56-88 (relative basal fluorescence)", "setting": "[2]", "result": "89 ± 13", "unit": "%"}
    ]},
    {"compound": "CC(=O)CSc1n(C)cc[n+]1C.[Cl-]", "note": "[R283]", "values": [
      {"measurement": "effect on epithelial infiltration of CD8+ T cells and mucosal damage", "setting": "[3]", "result": "did not mitigate"},
      {"measurement": "effect on actin rearrangement after treatment with P31-43", "setting": "actin rearrangement", "result": "did not prevent actin rearrangement"}
    ]},
    {"compound": "CN(C)c1cccc2c(S(=O)(=O)NCCCCCN)cccc12", "note": "[monodansyl cadaverine]", "values": [
      {"measurement": "effect on gliadin peptide uptake (P31-43 and P57-68)", "setting": "[4]", "result": "did not show an effect"}
    ]},
    {"compound": "IFN-γ: key cytokine of the Th1-driven inflammation in CD, recognized inducer of TG2 expression", "values": [
      {"measurement": "TG2 expression on the protein level", "setting": "TG2 expression", "result": "almost sevenfold increase"}
    ]}
  ]
}
